The text below walks through data of US20030207813A1, “Retroviral protease inhibitor combinations” (priority 1995, published 2003).

A value given as a limit tells only on which side of the number the result lay.

Holding throughout (type): cell-based, HIV-1
Experiment [1] deals with NL4(P37-538). Put plainly: Viral isolate resistance assay per Markowitz et al., NL4(P37-538). Particulars: Human immunodeficiency virus 1; Table 9; selected against Example 10, 37 passages; read-out: Virus Isolate (EC50 nM) NL4(P37-538). The text has this: (§1) RF represents the HIV-1 strain HIV-LRF and RFR represents a mixture of resistant strains obtained by selection of RF against the compound of Example 1. RFR comprises a mixture of viral strains having protease genotypes of G48V (14/40 clones); G48V, V82A (18/40 clones); G48V, L90S (2/40 clones); G48V, 154T, V82A (1/40 clones); G48M (1/40 clones); G48V, Q61H (1/40 clones); V13I, G48V (1/40 clones); G48V, F53L, V82A (1/40 clones); and G48V, V82A, C95Y (1/40 clones). RFR2 represents a mixture of resistant strains obtained by cloning RFR by three rounds of growth at limiting dilution. RFR2 comprises a mixture of viral strains having protease genotypes of G48V, V82A (13/15 clones); G17E, G48V, V82A (1/15 clones); and G48V, V82A, N37D, N88D (1/15 clones). RFRR represents a mixture of resistant strains obtained by selection of RF against the compounds of Examples 1 and 2 and then cloning by three rounds of growth at limiting dilution. RFRR comprises a mixture of viral strains having protease genotypes of G48V, 154T, L63P, V82A (7/9 clones); G48V, 154T, L63P, V82A, N88S (1/9 clones); and G48V, 154T, L63P, G73M, V82A (1/9 clones). SF162 represents the HIV-1 strain SF-162 and SF162R represents a mixture of resistant strains obtained by selection of SF162 against the compound of Example 1. SF162R comprises a mixture of viral strains having protease genotypes of M461, F53L, L63P, A71V, N88D (2/3 clones); and M46I, F53L, L63P, A71V, N88D, Q92R (1/3 clones). 89-959 represents the HIV-1 strain 89-959 and 89-959R represents a mixture of resistant strains obtained by selection of 89-959 against the compound of Example 2. 89-959R comprises a mixture of viral strains having protease genotypes of N88S (4/5 clones); and D25N, T26A, D30N, D37N, R41K, G73D, R87K, N88S (1/4 clones). NL4 represents the HIV-1 strain HIV-1NL4-3. NL4(G48V) represents a strain having a synthetically generated site-directed mutation in the protease from glycine to valine at amino acid position number 48. NL4(I84V) represents a strain having a synthetically generated site-directed mutation in the protease from isoleucine to valine at amino acid position number 84. NL4(R8Q,M46I) represents a strain having synthetically generated site-directed mutations in the protease from arginine to glutamine at amino acid position number 8 and methionine to isoleucine at amino acid position number 46. NL4(P22-538) represents a mixture of resistant strains obtained by selection of HIV-1NL4-3 against the compound of Example 10 after 22 passages comprising protease genotypes M46I, L63P, A71V, V82F, I84V (4/10); M46I, L63P, V82F, I84V (3/10); and M46I, A71V, V82F, I84V (3/10). NL4(P37-538) represents resistant strains obtained by selection of HIV-1NL4-3 against the compound of Example 10 after 37 passages comprising protease genotype M46I, L63P, A71V, 184A. NL4(538/524) represents resistant strains obtained by selection of NL4(P22-538) against the compound of Example 5 after 24 passages comprising protease genotype M46I, L63P, A71V, 184A. NL4(538/P7-AG) represents a mixture of resistant strains obtained by selection of NL4(P22-538) against the compound of Example 12 after 7 passages comprising protease genotypes M46I, L63P, A71V, 184A; and V321, V82I. NL4(538/P24-AG) represents resistant strains obtained by selection of NL4(P22-538) against the compound of Example 12 after 24 passages comprising protease genotype M46I, L63P, A71V, 184A. NLA(P19-003) represents resistant strains obtained by selection of HIV-1^NL4-3 against the compound of Example 9 after 19 passages comprising protease genotype R8K, M46I. NL4(P34-003) represents resistant strains obtained by selection of HIV-1^NL4-3 against the compound of Example 9 after 34 passages comprising protease genotype R8K, M46I, L63P, A71V, L90M.
The viral isolate resistance results summarized in Tables 7-11 were generated according to the assay procedures described by Markowitz et al., Journal of Virology, vol. […]

Experiment [2] relates to NL4(538/P7-AG). Put plainly: Viral isolate resistance assay per Markowitz et al., NL4(538/P7-AG). Particulars: Human immunodeficiency virus 1; Table 10; NL4(P22-538) selected against Example 12, 7 passages.
Excerpt: as §1, with “NLA(P19-003) represents resistant strains obtained by selection of HIV-1^NL4-3 against the compound of Example 9 after 19 passages comprising protease genotype R8K, M46I. NL4(P34-003) represents resistant strains obtained by selection of HIV-1^NL4-3 against the compound of Example 9 after 34 passages comprising protease genotype R8K, M46I, L63P, A71V, L90M.” left out

The test system of experiment [3] is NLA(P19-003). Put plainly: Viral isolate resistance assay per Markowitz et al., NLA(P19-003). Particulars: Human immunodeficiency virus 1, read-out: Virus Isolate (EC50 nM) NLA(P19-003). The text has this:
(§2) RF represents the HIV-1 strain HIV-LRF and RFR represents a mixture of resistant strains obtained by selection of RF against the compound of Example 1. RFR comprises a mixture of viral strains having protease genotypes of G48V (14/40 clones); G48V, V82A (18/40 clones); G48V, L90S (2/40 clones); G48V, 154T, V82A (1/40 clones); G48M (1/40 clones); G48V, Q61H (1/40 clones); V13I, G48V (1/40 clones); G48V, F53L, V82A (1/40 clones); and G48V, V82A, C95Y (1/40 clones). RFR2 represents a mixture of resistant strains obtained by cloning RFR by three rounds of growth at limiting dilution. RFR2 comprises a mixture of viral strains having protease genotypes of G48V, V82A (13/15 clones); G17E, G48V, V82A (1/15 clones); and G48V, V82A, N37D, N88D (1/15 clones). RFRR represents a mixture of resistant strains obtained by selection of RF against the compounds of Examples 1 and 2 and then cloning by three rounds of growth at limiting dilution. RFRR comprises a mixture of viral strains having protease genotypes of G48V, 154T, L63P, V82A (7/9 clones); G48V, 154T, L63P, V82A, N88S (1/9 clones); and G48V, 154T, L63P, G73M, V82A (1/9 clones). SF162 represents the HIV-1 strain SF-162 and SF162R represents a mixture of resistant strains obtained by selection of SF162 against the compound of Example 1. SF162R comprises a mixture of viral strains having protease genotypes of M461, F53L, L63P, A71V, N88D (2/3 clones); and M46I, F53L, L63P, A71V, N88D, Q92R (1/3 clones). 89-959 represents the HIV-1 strain 89-959 and 89-959R represents a mixture of resistant strains obtained by selection of 89-959 against the compound of Example 2. 89-959R comprises a mixture of viral strains having protease genotypes of N88S (4/5 clones); and D25N, T26A, D30N, D37N, R41K, G73D, R87K, N88S (1/4 clones). NL4 represents the HIV-1 strain HIV-1NL4-3. NL4(G48V) represents a strain having a synthetically generated site-directed mutation in the protease from glycine to valine at amino acid position number 48. […]

The test system of experiment [4] is NL4(P34-003). Put plainly: Viral isolate resistance assay per Markowitz et al., NL4(P34-003). Particulars: Human immunodeficiency virus 1; Table 11; selected against Example 9, 34 passages.
Excerpt: as §2

For experiment [5], the system named is NL4(P22-538). Put plainly: Viral isolate resistance assay per Markowitz et al., NL4(P22-538). Particulars: Human immunodeficiency virus 1; Table 9; selected against Example 10, 22 passages; read-out: Virus Isolate (EC50 nM) NL4(P22-538).
Excerpt: as §1, with “NLA(P19-003) represents resistant strains obtained by selection of HIV-1^NL4-3 against the compound of Example 9 after 19 passages comprising protease genotype R8K, M46I. NL4(P34-003) represents resistant strains obtained by selection of HIV-1^NL4-3 against the compound of Example 9 after 34 passages comprising protease genotype R8K, M46I, L63P, A71V, L90M.” left out

The subject of experiment [6] is NL4(I84V). Put plainly: Viral isolate resistance assay per Markowitz et al., NL4(I84V). Particulars: Human immunodeficiency virus 1, Table 7. From the text: RF represents the HIV-1 strain HIV-LRF and RFR represents a mixture of resistant strains obtained by selection of RF against the compound of Example 1. […] RFR2 represents a mixture of resistant strains obtained by cloning RFR by three rounds of growth at limiting dilution. […] RFRR represents a mixture of resistant strains obtained by selection of RF against the compounds of Examples 1 and 2 and then cloning by three rounds of growth at limiting dilution. […] SF162 represents the HIV-1 strain SF-162 and SF162R represents a mixture of resistant strains obtained by selection of SF162 against the compound of Example 1. […] 89-959 represents the HIV-1 strain 89-959 and 89-959R represents a mixture of resistant strains obtained by selection of 89-959 against the compound of Example 2. […] NL4 represents the HIV-1 strain HIV-1NL4-3. NL4(G48V) represents a strain having a synthetically generated site-directed mutation in the protease from glycine to valine at amino acid position number 48. NL4(I84V) represents a strain having a synthetically generated site-directed mutation in the protease from isoleucine to valine at amino acid position number 84. NL4(R8Q,M46I) represents a strain having synthetically generated site-directed mutations in the protease from arginine to glutamine at amino acid position number 8 and methionine to isoleucine at amino acid position number 46.

In the case of `Nc1cccc(CN2C(=O)N(Cc3cccc(N)c3)[C@H](Cc3ccccc3)[C@H](O)[C@@H](O)[C@H]2Cc2ccccc2)c1` [Example 13, [4R-(4α,5α,6β,7β)]-1,3-bis[(3-aminophenyl)methyl]hexahydro-5,6-dihydroxy-4,7-bis(phenylmethyl)-2H-1,3-diazepin-2-one], the EC50 in experiment [1] was over 31200 nM; in experiment [2], over 31200 nM; in experiment [3], 1250 nM; in experiment [4] it was 1250 nM; in experiment [5], 5000 nM. In experiment [6], this compound showed an EC90 of 6250 nM.

The term EC50 denotes the concentration needed to bring the measured effect to its halfway point. By EC90 is commonly meant the concentration needed for an effect of 90%. Low values mean an effect from little substance, high ones a need for much substance.
